Where two headings read alike, the source gives them in different places. Blank lines part the entries; values can stand above or below the compound they belong to.
Legend:
[1] = test system: recombinant guanylate cyclase reporter cell line; assay: sGC-activating activity in the CHO reporter cell in vitro; assay type: cell-based; conditions: read-out: MEC (minimum effective concentration)
Description: B-2. Action at a Recombinant Guanylate Cyclase Reporter Cell Line
The cellular action of the compounds according to the invention is determined at a recombinant guanylate cyclase reporter cell line, as described in F. Wunder et al., Anal. Biochem. 32, 104-112 (2005).

saphenous artery rings = assay: Vasorelaxant effect in vitro (phenylephrine-contracted saphenous artery rings); design: species or system Rabbits; conditions: rabbit saphenous artery rings, read-out: IC50 (concentration reducing phenylephrine-induced contraction by 50%)
Description: B-3. Vasorelaxant Effect In Vitro
Rabbits are anaesthetized and sacrificed by intravenous injection of thiopental sodium (about 50 mg/kg) and exsanguinated. The saphenous artery is removed and divided into rings 3 mm wide. The rings are mounted singly on in each case a pair of triangular hooks open at the end and made of 0.3 mm-thick special wire (Remanium®). Each ring is placed under an initial tension in 5 ml organ baths with Krebs-Henseleit solution which is at 37° C., is gassed with carbogen and has the following composition: NaCl 119 mM; KCl 4.8 mM; CaCl2×2 H2O 1 mM; MgSO4×7H2O 1.4 mM; KH2PO4 1.2 mM; NaHCO3 25 mM; glucose 10 mM; bovine serum albumin 0.001%. The force of contraction is detected with Statham UC2 cells, amplified and digitized via A/D converters (DAS-1802 HC, Keithley Instruments, Munich) and recorded in parallel on chart recorders. Contractions are induced by addition of phenylephrine.
After several (generally 4) control cycles, the substance to be investigated is added in each further run in increasing dosage, and the level of the contraction achieved under the influence of the test substance is compared with the level of the contraction reached in the last preceding run. The concentration necessary to reduce the contraction reached in the preceding control by 50% is calculated from this (IC50). The standard application volume is 5 μl. The proportion of DMSO in the bath solution corresponds to 0.1%.

[2] = target: T1, haem-free recombinant soluble guanylate cyclase (sGC) (Rattus norvegicus, UniProt P20595); assay: Stimulation of recombinant soluble guanylate cyclase (sGC) in vitro, haem-free enzyme; assay type: biochemical
T1 construct: made in house; host or cells: Sf9 insect cells (baculovirus)
T1 sequence (P20595 1-619): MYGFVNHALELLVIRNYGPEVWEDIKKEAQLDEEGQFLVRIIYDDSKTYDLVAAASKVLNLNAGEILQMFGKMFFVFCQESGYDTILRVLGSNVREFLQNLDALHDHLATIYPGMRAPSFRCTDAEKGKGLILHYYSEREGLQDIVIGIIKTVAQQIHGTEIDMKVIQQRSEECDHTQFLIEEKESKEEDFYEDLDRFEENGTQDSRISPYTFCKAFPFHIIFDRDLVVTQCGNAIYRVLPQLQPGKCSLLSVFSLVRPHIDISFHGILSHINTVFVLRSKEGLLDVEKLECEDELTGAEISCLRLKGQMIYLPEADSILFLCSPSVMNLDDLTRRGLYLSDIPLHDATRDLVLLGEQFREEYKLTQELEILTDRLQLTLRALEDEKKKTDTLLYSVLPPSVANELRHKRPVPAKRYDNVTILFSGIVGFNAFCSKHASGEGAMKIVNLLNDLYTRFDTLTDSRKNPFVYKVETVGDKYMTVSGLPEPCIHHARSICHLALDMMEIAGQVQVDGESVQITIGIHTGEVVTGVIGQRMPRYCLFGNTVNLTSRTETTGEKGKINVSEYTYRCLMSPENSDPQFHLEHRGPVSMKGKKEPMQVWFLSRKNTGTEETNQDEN
T1 sequence (P19686 1-690 partner): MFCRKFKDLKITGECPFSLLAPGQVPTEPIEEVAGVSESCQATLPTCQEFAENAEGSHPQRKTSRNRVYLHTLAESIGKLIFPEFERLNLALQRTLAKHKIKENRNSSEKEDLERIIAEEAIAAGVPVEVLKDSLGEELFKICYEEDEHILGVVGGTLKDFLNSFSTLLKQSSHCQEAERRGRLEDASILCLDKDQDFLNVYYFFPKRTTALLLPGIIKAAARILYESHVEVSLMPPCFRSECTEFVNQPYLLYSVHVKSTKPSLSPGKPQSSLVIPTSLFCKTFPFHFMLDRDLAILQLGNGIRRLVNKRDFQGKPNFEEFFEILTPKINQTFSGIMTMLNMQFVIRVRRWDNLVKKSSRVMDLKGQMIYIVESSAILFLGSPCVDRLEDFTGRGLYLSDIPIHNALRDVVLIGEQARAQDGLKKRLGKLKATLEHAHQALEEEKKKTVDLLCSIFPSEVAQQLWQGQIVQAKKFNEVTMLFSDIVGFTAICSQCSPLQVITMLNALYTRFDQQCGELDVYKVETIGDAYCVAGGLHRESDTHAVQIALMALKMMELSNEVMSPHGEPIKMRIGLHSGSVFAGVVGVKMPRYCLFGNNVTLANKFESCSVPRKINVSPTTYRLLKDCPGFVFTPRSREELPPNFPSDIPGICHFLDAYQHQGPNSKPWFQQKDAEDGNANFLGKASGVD
Description: (§1) B-1. Stimulation of Recombinant Soluble Guanylate Cyclase (sGC) In Vitro
(§2) Investigations on the stimulation of recombinant soluble guanylate cyclase (sGC) by the compounds according to the invention with and without sodium nitroprusside, and with and without the haem-dependent sGC inhibitor 1H-1,2,4-oxadiazolo[4,3a]quinoxalin-1-one (ODQ), are carried out by the method described in detail in the following reference: M. Hoenicka, E. M. Becker, H. Apeler, T. Sirichoke, H. Schroeder, R. Gerzer and J.-P. Stasch, “Purified soluble guanylyl cyclase expressed in a baculovirus/Sf9 system: Stimulation by YC-1, nitric oxide, and carbon oxide”, J. Mol. Med 77 (1999), 14-23. The haem-free guanylate cyclase is obtained by adding Tween 20 to the sample buffer (0.5% in the final concentration).
The activation of sGC by a test substance is reported as x-fold stimulation of the basal activity. The result for Example 2 is shown in Table 1A, that for Example 23 in Table 1B and that for Example 39 in Table 1C: […]

[3] = target: T2, haem-containing recombinant soluble guanylate cyclase (sGC) (Rattus norvegicus, UniProt P20595); assay: Stimulation of recombinant soluble guanylate cyclase (sGC) in vitro, haem-containing enzyme; assay type: biochemical
T2 construct: made in house; host or cells: Sf9 insect cells (baculovirus)
T2 sequence (P20595 1-619): T1 sequence (P20595 1-619)
T2 sequence (P19686 1-690 partner): T1 sequence (P19686 1-690 partner)
Description: as §1, §2
The activation of sGC by a test substance is reported as x-fold stimulation of the basal activity. The result for Example 2 is shown in Table 1A, that for Example 23 in Table 1B and that for Example 39 in Table 1C:
[DEA/NO=2-(N,N-diethylamino)diazenolate 2-oxide; ODQ=1H-1,2,4-oxadiazolo-[4,3a]quinoxalin-1-one].

SMILES: CC(C)(C)c1ccc(COc2ccccc2CCN(CCCCC(=O)O)C2CCCc3nc(C(=O)O)ccc32)cc1 (single isomer, unassigned) [Example 4]
- minimal effective concentration [1]: 0.5 nM
- IC50 (saphenous artery rings; Oryctolagus cuniculus): 0.3 nM

SMILES: O=C(O)CCCCN(CCc1ccccc1OCc1ccc(CCc2ccccc2)cc1)C1CCCc2nc(C(=O)O)ccc21 (single isomer, unassigned) [Example 14]
- minimal effective concentration [1]: 30 nM
- IC50 (saphenous artery rings): 41.8 nM

SMILES: O=C(O)CCCCN(CCc1ccccc1OCc1ccc(CCc2ccc(F)cc2)cc1)C1CCCc2nc(C(=O)O)ccc21 (single isomer, unassigned) [Example 15]
- minimal effective concentration [1]: 0.3 nM
- IC50 (saphenous artery rings): 0.2 nM

SMILES: Cc1ccc2oc(-c3ccc(COc4ccccc4CCN(CCCCC(=O)O)C4CCCc5nc(C(=O)O)ccc54)cc3)nc2c1 (single isomer, unassigned; enantiomer 1) [Example 1, (−)-5-{(4-Carboxybutyl)[2-(2-{[4-(5-methyl-1,3-benzoxazol-2-yl)benzyl]oxy}phenyl)ethyl]-amino}-5,6,7,8-tetrahydroquinoline-2-carboxylic acid (Enantiomer 1)]
- minimal effective concentration [1]: 160 nM
- IC50 (saphenous artery rings): 571 nM

More lines, main results first:

- IC50 (saphenous artery rings): 15.5 nM
SMILES: O=C(O)CCCCN(CCc1ccccc1OCc1ccc(CCc2ccc(F)cc2)cc1)C1CCCc2nc(C(=O)O)ccc21 (single isomer, unassigned) [Example 16]
- minimal effective concentration [1]: 3 nM

- IC50 (saphenous artery rings; Oryctolagus cuniculus): 0.4 nM
SMILES: O=C(O)CCCCN(CCc1ccccc1OCc1ccc(-c2ccc(C(F)(F)F)cc2)cc1)C1CCCc2nc(C(=O)O)ccc21 (single isomer, unassigned) [Example 18]
- minimal effective concentration [1]: 0.3 nM

- Stimulation (x-fold), haem-free sGC, basal ([2]; test compound 0.01 μM): 52.5 ± 3.8 x-fold
- Stimulation (x-fold), haem-free sGC, basal ([2]; test compound 0.1 μM): 184.3 ± 15.4 x-fold
- Stimulation (x-fold), haem-free sGC, basal ([2]; test compound 1.0 μM): 284.7 ± 18.8 x-fold
- Stimulation (x-fold), haem-free sGC, basal ([2]; test compound 10 μM): 310.4 ± 22.6 x-fold
- Stimulation (x-fold), haem-free sGC, basal ([2]; test compound 100 μM): 342.0 ± 27.6 x-fold
- Effect of combination with the NO donor DEA/NO on sGC stimulation [3]: no synergistic effect
- Stimulation (x-fold), haem-containing sGC, basal ([3]; test compound 0.01 μM): 8.3 ± 1.1 x-fold
- Stimulation (x-fold), haem-containing sGC, +0.1 μM DEA/NO ([3]; test compound 0.01 μM): 24.5 ± 4.4 x-fold
- Stimulation (x-fold), haem-containing sGC, +10 μM ODQ ([3]; test compound 0.01 μM): 16.9 ± 3.3 x-fold
- Stimulation (x-fold), haem-containing sGC, basal ([3]; test compound 0.1 μM): 54.2 ± 11.9 x-fold
- Stimulation (x-fold), haem-containing sGC, +0.1 μM DEA/NO ([3]; test compound 0.1 μM): 77.1 ± 9.2 x-fold
- Stimulation (x-fold), haem-containing sGC, +10 μM ODQ ([3]; test compound 0.1 μM): 105.4 ± 18.0 x-fold
- Stimulation (x-fold), haem-containing sGC, basal ([3]; test compound 1.0 μM): 108.7 ± 16.3 x-fold
- Stimulation (x-fold), haem-containing sGC, +0.1 μM DEA/NO ([3]; test compound 1.0 μM): 155.2 ± 20.7 x-fold
- Stimulation (x-fold), haem-containing sGC, +10 μM ODQ ([3]; test compound 1.0 μM): 216.1 ± 28.9 x-fold
- Stimulation (x-fold), haem-containing sGC, basal ([3]; test compound 10 μM): 135.7 ± 20.0 x-fold
- Stimulation (x-fold), haem-containing sGC, +0.1 μM DEA/NO ([3]; test compound 10 μM): 180.4 ± 22.9 x-fold
- Stimulation (x-fold), haem-containing sGC, +10 μM ODQ ([3]; test compound 10 μM): 227.0 ± 31.7 x-fold
- Stimulation (x-fold), haem-containing sGC, basal ([3]; test compound 100 μM): 180.5 ± 21.2 x-fold
- Stimulation (x-fold), haem-containing sGC, +0.1 μM DEA/NO ([3]; test compound 100 μM): 241.0 ± 34.4 x-fold
- Stimulation (x-fold), haem-containing sGC, +10 μM ODQ ([3]; test compound 100 μM): 261.7 ± 32.1 x-fold
SMILES: O=C(O)c1ccc(CCN(CCc2ccccc2OCc2ccc(-c3ccc(C(F)(F)F)cc3)cc2Cl)C2CCCc3nc(C(=O)O)ccc32)cc1 (single isomer, unassigned; enantiomer 2) [Example 23, 5-{[2-(4-Carboxyphenyl)ethyl][2-(2-{[3-chloro-4′-(trifluoromethyl)biphenyl-4-yl]methoxy}-phenyl)ethyl]amino}-5,6,7,8-tetrahydroquinoline-2-carboxylic acid (Enantiomer 2)]
- minimal effective concentration [1]: 0.7 nM

- Stimulation (x-fold), haem-free sGC, basal ([2]; test compound 0.01 μM): 39.0 ± 5.8 x-fold
- Stimulation (x-fold), haem-free sGC, basal ([2]; test compound 0.1 μM): 176.9 ± 29.9 x-fold
- Stimulation (x-fold), haem-free sGC, basal ([2]; test compound 1.0 μM): 284.9 ± 54.5 x-fold
- Stimulation (x-fold), haem-free sGC, basal ([2]; test compound 10 μM): 311.5 ± 55.9 x-fold
- Stimulation (x-fold), haem-free sGC, basal ([2]; test compound 100 μM): 309.4 ± 54.8 x-fold
- Effect of combination with the NO donor DEA/NO on sGC stimulation [3]: no synergistic effect
- Stimulation (x-fold), haem-containing sGC, basal ([3]; test compound 0.01 μM): 17.4 ± 2.4 x-fold
- Stimulation (x-fold), haem-containing sGC, +0.1 μM DEA/NO ([3]; test compound 0.01 μM): 46.5 ± 2.8 x-fold
- Stimulation (x-fold), haem-containing sGC, +10 μM ODQ ([3]; test compound 0.01 μM): 42.0 ± 4.9 x-fold
- Stimulation (x-fold), haem-containing sGC, basal ([3]; test compound 0.1 μM): 73.0 ± 7.7 x-fold
- Stimulation (x-fold), haem-containing sGC, +0.1 μM DEA/NO ([3]; test compound 0.1 μM): 115.5 ± 11.9 x-fold
- Stimulation (x-fold), haem-containing sGC, +10 μM ODQ ([3]; test compound 0.1 μM): 145.6 ± 14.7 x-fold
- Stimulation (x-fold), haem-containing sGC, basal ([3]; test compound 1.0 μM): 96.6 ± 8.5 x-fold
- Stimulation (x-fold), haem-containing sGC, +0.1 μM DEA/NO ([3]; test compound 1.0 μM): 145.2 ± 15.9 x-fold
- Stimulation (x-fold), haem-containing sGC, +10 μM ODQ ([3]; test compound 1.0 μM): 182.5 ± 17.6 x-fold
- Stimulation (x-fold), haem-containing sGC, basal ([3]; test compound 10 μM): 108.6 ± 9.0 x-fold
- Stimulation (x-fold), haem-containing sGC, +0.1 μM DEA/NO ([3]; test compound 10 μM): 159.4 ± 17.9 x-fold
- Stimulation (x-fold), haem-containing sGC, +10 μM ODQ ([3]; test compound 10 μM): 188.7 ± 16.5 x-fold
- Stimulation (x-fold), haem-containing sGC, basal ([3]; test compound 100 μM): 143.6 ± 13.4 x-fold
- Stimulation (x-fold), haem-containing sGC, +0.1 μM DEA/NO ([3]; test compound 100 μM): 192.1 ± 24.6 x-fold
- Stimulation (x-fold), haem-containing sGC, +10 μM ODQ ([3]; test compound 100 μM): 208.5 ± 19.0 x-fold
SMILES: O=C(O)c1ccc(CCN(CCc2cc(F)ccc2OCc2ccc(-c3nc4cc(Cl)ccc4o3)cc2)C2CCCc3nc(C(=O)O)ccc32)cc1 (single isomer, unassigned; enantiomer 2) [Example 39, 5-{[2-(4-Carboxyphenyl)ethyl][2-(2-{[4-(5-chloro-1,3-benzoxazol-2-yl)benzyl]oxy}-5-fluorophenyl)ethyl]amino}-5,6,7,8-tetrahydroquinoline-2-carboxylic acid (Enantiomer 2)]
- minimal effective concentration [1]: 1 nM
